Assay results from patent publication US5318967A, “2,3,3a,4,5,9b-hexahydro-1H-benzo[e]indole derivatives” (priority 1991, dated 1994).
pIC50: −log10 of the molar value. Structures can show the parent of a compound that is named as a salt. Where two headings read alike, the source gives them in different places.

Legend:
[1] = target: acetylcholine esterase (Homo sapiens, UniProt P22303); experiment: biochemical
From the text: The determination of the acetylcholine esterase inhibition was effected according to the method of Ellmann et al., Biochem. Pharmacol. 7 (1961) 88, and/or according to the method of Johnson et al., Analytical Biochemistry 64 (1975), 229.

[2] = tested on: muscarinic receptors; experiment: Affinity for muscarinic receptors (Watson et al.; Eberlein et al.); assay type: binding
From the text: (§1) Furthermore, the compounds of formula I have affinity for sigma receptors, determined according to Weber et al., Proc. Natl. Acad. Sci. USA 83 (1986), 8784) and in part also for muscarinic receptors, determined according to Watson et al., Pharmacol. Exp. Ther. 237 (1986), 419 and according to Eberlein et al., Trends Pharmacol. Science 10 (1989), 50.

[3] = tested on: M2; experiment: Muscarinic M2 receptor binding, [3H]-AFDX 384
From the text: as §1

[4] = tested on: rat; experiment: Toxicity, lowest lethal dose (LLD), rat
[5] = tested on: M1; experiment: Muscarinic M1 receptor binding, [3H]-Pirenzepine
From the text: as §1

[6] = tested on: Sigma; experiment: Sigma receptor binding, [3H]-DTG (Weber et al.); details: for Percentage inhibition: [3H]-DTG
From the text: as §1

[7] = tested on: muscarinic receptors; experiment: Antagonism of contraction of guinea pig plexus myentericus preparation induced by muscarinic agonists (Kilbinger et al.); details: micromolar concentrations
[8] = tested on: mouse; experiment: Toxicity, lowest lethal dose (LLD), mouse; assay type: in vivo; details: po mouse
[9] = IC 50 for acetylcholine esterase inhibition
[10] = read-out: IC 50 for acetylcholine esterase inhibition

Sequence of acetylcholine esterase (P22303 32-614): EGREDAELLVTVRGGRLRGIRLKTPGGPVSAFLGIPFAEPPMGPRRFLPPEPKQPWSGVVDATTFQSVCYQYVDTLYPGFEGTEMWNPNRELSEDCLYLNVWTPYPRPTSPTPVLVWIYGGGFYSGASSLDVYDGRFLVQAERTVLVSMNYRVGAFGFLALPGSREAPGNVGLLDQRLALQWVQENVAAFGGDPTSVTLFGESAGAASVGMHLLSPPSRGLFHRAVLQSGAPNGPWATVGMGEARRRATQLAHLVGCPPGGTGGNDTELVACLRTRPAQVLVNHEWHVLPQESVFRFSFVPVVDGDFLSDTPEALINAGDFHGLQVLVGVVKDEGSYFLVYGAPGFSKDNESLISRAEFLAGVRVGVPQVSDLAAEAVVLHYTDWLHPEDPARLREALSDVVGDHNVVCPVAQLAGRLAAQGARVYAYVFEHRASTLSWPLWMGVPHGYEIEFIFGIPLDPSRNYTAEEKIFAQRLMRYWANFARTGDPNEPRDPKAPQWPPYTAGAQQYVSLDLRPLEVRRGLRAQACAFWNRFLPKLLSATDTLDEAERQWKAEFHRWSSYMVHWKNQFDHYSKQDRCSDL

Compound: CN(C)C(=O)Oc1cccc2c1CC[C@H]1[C@@H]2CCN1CCC1CCCCC1.Cl (single isomer, unassigned) [A, (+)-cis-3-(2-cyclohexylethyl)-2,3,3a,4,5,9b-hexahydro-1H-benzo[e]indol-6-yl dimethylcarbamate hydrochloride]
- pIC50 [1, 9]: 7.66
- affinity for muscarinic receptors (in words) [2]: preferential affinity for muscarinic receptors of the M2 type
- Percentage inhibition ([3]; [3H]-AFDX 384, 10^-5 M): 94.8%
- Percentage inhibition ([3]; [3H]-AFDX 384, 10^-7 M): 31.3%
- LLD (lowest lethal dose) ([4]; sc rat): 30 mg/kg
- Percentage inhibition ([5]; 10^-5 M): 87.9%
- Percentage inhibition ([5]; 10^-7 M): 2.2%
- affinity for sigma receptors (in words) [6]: affinity to sigma receptors
- Percentage inhibition ([6]; 10^-5 M): 100.7%
- Percentage inhibition ([6]; 10^-7 M): 62.1%
- antagonism of contraction induced by muscarinic agonists (in words) [7]: in micromolar concentrations it antagonizes a contraction of a preparation of guinea pig plexus myentericus induced by muscarinic agonists

Compound: CN(C)C(=O)Oc1cccc2c1CC[C@H]1[C@@H]2CCN1CCCCN1C(=O)c2ccccc2C1=O.Cl (racemic) [D, rac-cis-2,3,3a,4,5,9b-hexahydro-3-(4-phthalimidobutyl)-1H-benzo[e]indol-6-yl dimethylcarbamate hydrochloride]
- pIC50 [1, 9]: 8.85
- LLD (lowest lethal dose) ([4]; ip rat): 3 mg/kg

Compound: CN(C)C(=O)Oc1cccc2c1CC[C@H]1[C@@H]2CCN1CCCCCCN1C(=O)c2ccccc2C1=O.Cl (racemic) [E, rac-cis-2,3,3a,4,5,9b-hexahydro-3-(6-phthalimidohexyl)-1H-benzo[e]indol-6-yl dimethylcarbamate hydrochloride]
- pIC50 [1, 9]: 9.40
- LLD (lowest lethal dose) ([4]; sc rat): 10 mg/kg

Compound: CCCN1CC[C@@H]2c3c(cccc3OC(=O)N(C)C)CC[C@@H]21 (racemic) [G, rac-cis-2,3,3a,4,5,9b-hexahydro-3-propyl-1H-benzo[e]indol-9-yl dimethylcarbamate]
- LLD (lowest lethal dose) [8]: 125 mg/kg
- pIC50 [1, 10]: 6.46

Compound: CN(C)C(=O)Oc1cccc2c1CC[C@H]1[C@@H]2CCN1CCCCC1CCCCC1 (racemic) [rac-cis-3-(4-cyclohexyl-butyl)-2,3,3a,4,5,9b-hexahydro-1H-benzo[e]indol-6-yl dimethylcarbamate]
- pIC50 [1, 10]: 7.46

Compound: COc1ccc(C(=O)CCCCCN2CC[C@@H]3c4cccc(OC(=O)N(C)C)c4CC[C@@H]32)cc1OC (racemic) [rac-3-[5-(3,4-dimethoxy-benzoyl)-pentyl]-cis-2,3,3a,4,5,9b-hexahydro-1H-benzo[e]indol-6-yl dimethylcarbamate]
- pIC50 [1, 10]: 8.92

Compound: CN(C)C(=O)Oc1cccc2c1CC[C@@H]1[C@H]2CCN1Cc1ccccc1 (relative stereo) [rac-3-benzyl-2,3,3a,4,5,9b-hexahydro-1H-cis-benzo[e]indol-6-yl dimethylcarbamate]
- pIC50 [1, 10]: 7.31

Compound: CCCN1C[C@@H](C)[C@@H]2c3cccc(OC(=O)N(C)C)c3CC[C@@H]21 (relative stereo) [H, rac-2,3,3aα,4,5,9bα-hexahydro-1α-methyl-3-propyl-1H-benzo[e]indol-6-yl dimethylcarbamate]
- pIC50 [1, 10]: 6.31
- LLD (lowest lethal dose) ([4]; sc rat): 100 mg/kg

Compound: CN(C)C(=O)Oc1cccc2c1CC[C@H]1[C@@H]2CCN1CCN1CCOCC1.Cl.Cl (racemic) [F, rac-cis-2,3,3a,4,5,9b-hexahydro-3-(2-morpholinoethyl)-1H-benzo[e]indol-6-yl dimethylcarbamate dihydrochloride]
- pIC50 [1, 9]: 6.97
- LLD (lowest lethal dose) ([4]; sc rat): 30 mg/kg

Compound: CN(C)C(=O)Oc1cccc2c1CC[C@H]1[C@@H]2CCN1CCc1ccccc1 (racemic) [rac-3-phenethyl-cis-2,3,3a,4,5,9b-hexahydro-1H-benzo[e]indol-6-yl dimethylcarbamate]
- pIC50 [1, 10]: 7.33

Compound: CN(C)C(=O)Oc1cccc2c1CC[C@@H]1[C@H]2CCN1CCCCCCNC(=O)c1ccc(S(C)(=O)=O)cc1 (relative stereo) [rac-3-[6-(4-methanesulfonyl-benzoylamino)hexyl]-2,3,3a,4,5,9b-hexahydro-1H-cis-benzo[e]indol-6-yl-dimethylcarbamate]
- pIC50 [1, 10]: 8.25

Compound: CN(C)C(=O)Oc1cccc2c1CC[C@@H]1[C@H]2CCN1CCCCCCN (relative stereo) [rac-3-(6-aminohexyl)-2,3,3a,4,5,9b-hexahydro-1H-cis-benzo[e]indol-6-yl dimethylcarbamate]
- pIC50 [1, 10]: 8.10

Compound: CN(C)C(=O)Oc1cccc2c1CC[C@H]1[C@@H]2CCN1CCC1CCCCC1.Cl (racemic) [C, rac-cis-3-(2-cyclohexylethyl)-2,3,3a,4,5,9b-hexahydro-1H-benzo[e]indol-6-yl dimethylcarbamate hydrochloride]
- pIC50 [1, 9]: 7.80
- LLD (lowest lethal dose) ([4]; ip rat): 30 mg/kg

Compound: CC(C)CCN1CC[C@@H]2c3cccc(OC(=O)N(C)C)c3CC[C@@H]21 (racemic) [rac-3-(3-methylbutyl)-cis-2,3,3a,4,5,9b-hexahydro-1H-benzo[e]indol-6-yl dimethylcarbamate]
- pIC50 [1, 10]: 7.17

Compound: CN(C)C(=O)Oc1cccc2c1CC[C@@H]1[C@H]2CCN1CCCCNC(=O)c1ccc(S(C)(=O)=O)cc1 (relative stereo) [rac-N-[4-(6-dimethylcarbamoyloxy)-cis-2,3,3a,4,5,9b-hexahydro-1H-benzo[e]indol-3-yl)-butyl]-4-methanesulfonylbenzamide]
- pIC50 [1, 10]: 8.17

Compound: CN(C)C(=O)Oc1cccc2c1CC[C@@H]1[C@H]2CCN1CCCCCNC(=O)c1ccccc1 (relative stereo) [rac-3-(5-benzoylaminopentyl)-2,3,3a,4,5,9b-hexahydro-1H-cis-benzo[e]indol-6-yl dimethylcarbamate]
- pIC50 [1, 10]: 7.82

Compound: CN(C)C(=O)Oc1cccc2c1CC[C@H]1[C@@H]2CCN1CCCCN1C(=O)CC(C)(C)CC1=O (racemic) [rac-3-[4-(4,4-dimethyl-2,6-dioxo-piperidin-1-yl)-butyl]-cis-2,3,3a,4,5,9b-hexahydro-1H-benzo[e]indol-6-yl dimethylcarbamate]
- pIC50 [1, 10]: 7.89

Compound: CCNC(=O)Oc1cccc2c1CC[C@H]1[C@@H]2CCN1CCC1CCCCC1 (single isomer, unassigned) [(+)-cis-3-(2-cyclohexylethyl)-2,3,3a,4,5,9b-hexahydro-1H-benzo[e]indol-6-yl ethylcarbamate]
- pIC50 [1, 10]: 5.61

Compound: CN(C)C(=O)Oc1cccc2c1CC[C@H]1[C@@H]2CCN1CCCCCNC(=O)c1ccc(S(C)(=O)=O)cc1 (racemic) [rac-cis-3-[5-(4-methanesulfonylbenzoylamino)pentyl]-2,3,3a,4,5,9b-hexahydro-1H-benzo[e]indol-6-yl dimethylcarbamate]
- pIC50 [1, 10]: 8.29

Compound: CN(C)C(=O)Oc1cccc2c1CC[C@H]1[C@@H]2CCN1CCC1CCCCC1 (single isomer, unassigned) [B, (-)-cis-3-(2-cyclohexylethyl)-2,3,3a,4,5,9b-hexahydro-1H-benzo[e]indol-6-yl dimethylcarabamate hydrochloride]
- pIC50 [1, 10]: 7.52
- LLD (lowest lethal dose) ([4]; sc rat): 30 mg/kg

Compound: CN(C)C(=O)Oc1cccc2c1CC[C@@H]1[C@H]2CCN1CCCCN (relative stereo) [rac-3-(4-aminobutyl)-2,3,3a,4,5,9b-hexahydro-1H-cis-benzo[e]indol-6-yl dimethylcarbamate]
- pIC50 [1, 10]: 6.57

Compound: CN(C)C(=O)Oc1cccc2c1CC[C@H]1[C@@H]2CCN1CCCCCN1C(=O)CC(C)(C)CC1=O (racemic) [rac-3-[5-(4,4-dimethyl-2,6-dioxo-piperidin-1-yl)-pentyl]-cis-2,3,3a,4,5,9b-hexahydro-1H-benzo[e]indol-6-yl dimethylcarbamate]
- pIC50 [1, 10]: 7.96

Compound: CN(C)C(=O)Oc1cccc2c1CC[C@H]1[C@@H]2CCN1CCCCNC(=O)c1ccccc1 (racemic) [rac-cis-3-(4-benzoylaminobutyl)-2,3,3a,4,5,9b-hexahydro-1H-benzo[e]indol-6-yl dimethylcarbamate]
- pIC50 [1, 10]: 7.80
